Where two headings read alike, the source gives them in different places.
Columns and labels:
[1] = biological target: T1, recombinant E. histolytica thioredoxin reductase (EhTRXR) (Entamoeba histolytica, UniProt C4LW95); set-up: method as in earlier work; settings: ref 34 (Sóto-Sánchez et al. 2020); cited from earlier work
T1 construct: His-tag (pET28a) (N); made in house; host or cells: E. coli BL21 (DE3)
T1 sequence (C4LW95 1-314): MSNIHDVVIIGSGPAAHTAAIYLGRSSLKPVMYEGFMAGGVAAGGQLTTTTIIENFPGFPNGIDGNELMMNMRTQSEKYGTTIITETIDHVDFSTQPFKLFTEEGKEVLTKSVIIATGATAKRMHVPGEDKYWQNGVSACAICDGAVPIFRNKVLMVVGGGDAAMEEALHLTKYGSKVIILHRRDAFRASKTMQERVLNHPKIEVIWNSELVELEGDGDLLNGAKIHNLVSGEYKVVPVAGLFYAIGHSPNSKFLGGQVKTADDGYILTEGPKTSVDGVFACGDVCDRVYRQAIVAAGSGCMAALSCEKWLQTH

T. vaginalis GT3 strain = assay: In vitro susceptibility assay, T. vaginalis trophozoites; type: cell-based, Trichomonas vaginalis
Experimental: (§1) G. lamblia WB strain, T. vaginalis GT3 strain, and E. histolytica strain HM1-IMSS were used in all experiments, all parasitic strains were obtained from the Unidad de Investigación Médica en Enfermedades Infecciosas y Parasitarias, Hospital de Pediatría, Instituto Mexicano del Seguro Social. In vitro susceptibility assays to determine IC50 values were performed using a method previously described. For this, 4 × 10^4 G. lamblia; 6 × 10^3 E. histolytica, or 4 × 10^4 T. vaginalis trophozoites were incubated for 48 h at 37 °C with different concentrations of quinoxaline derivatives T-137 to T-170 (0.5 ng/mL to 10 μg/mL) using dimethyl sulfoxide (DMSO) (0.05%) as solvent. Metronidazole and albendazole were used as positive controls, and parasites in the medium without drugs containing DMSO (0.05%) were included as negative controls. At the end of the incubation period, trophozoites were washed and subcultured for another 48 h in a fresh medium without drugs. Then, trophozoites were counted with a haemocytometer and the IC50 was calculated by Probit analysis. Experiments were carried out in triplicate and repeated at least twice.

[2] = system: murine macrophage cell line J774.2; assay: Cytotoxic evaluation, MTT colorimetric assay; type: cell-based; settings: murine macrophages J774.2, read-out: Cytotoxicity (Macrophages J774.2) (CC50)
Experimental: The murine macrophage cell line J774.2 was maintained in culture flasks with RPMI 1640 medium supplemented with 10% FBS, and 100 U/mL antibiotic-antifungal mixture (Gibco). Cells were incubated at 37 °C with 5% CO2 and humidity. Murine macrophage cell line J774.2 is maintained at Laboratorio de Estudios Epidemiológicos, Clínicos, Diseños Experimentales e Investigación, Facultad de Ciencias Químicas, Universidad Autónoma “Benito Juárez” de Oaxaca. Macrophages were washed and viability was assessed by the MTT colorimetric assay. In a 96-well microplate, 1 × 10^5 macrophages were added per well and a dose-response assay was performed. Compounds were evaluated using serial dilutions to determine half-maximal cytotoxic concentration (CC50) values in triplicate considering 0.2% DMSO as negative control.

G. lamblia WB strain = assay: In vitro susceptibility assay, G. lamblia trophozoites; type: cell-based, Giardia lamblia
Experimental: as §1

[3] = system: E. histolytica strain HM1-IMSS; assay: In vitro susceptibility assay, E. histolytica trophozoites; type: cell-based, Entamoeba histolytica; settings: for IC50: Entamoeba histolytica, 48 h, read-out: E. histolytica (IC50 nM), trophozoites, 48 h at 37 °C, subcultured 48 h, Probit analysis
Experimental: as §1

[4] = biological target: T1, recombinant E. histolytica thioredoxin reductase (EhTRXR); assay: Inhibition of EhTrxR DTNB reductase activity; type: biochemical; settings: for inhibition at 100 µM: pH 7, read-out: EhTrxR inhibitory effect (disulphide reductase activity)
Experimental: Recombinant E. histolytica thioredoxin reductase (EhTRXR) was expressed in E. coli BL21 (DE3) as His-tag (N-terminal) recombinant proteins using pET28a vector, and it was purified using IMAC as previously described. 5,5′-Dithiobis(2-nitrobenzoic acid) (DTNB) reductase activity was measured by monitoring the production of thionitrobenzoate at 405 nm in a reaction mixture comprising 50 mM potassium phosphate, pH 7.0, 2 mM EDTA, 300 µM NADPH, 5 mM DTNB, and 0.1 µM EhTRXR. Activity was calculated using the molar extinction coefficient at 405 nm of 13.6 mM^−1cm^− 1 and considering that 1 mol of NADPH yields 2 mol of thionitrobenzoate. The enzyme assays were performed at 30 °C, in a final volume of 50 μL, and using a Multiskan Ascent one-channel vertical light path filter photometer (Thermo Electron Co.). All results represent the arithmetic mean of at three independent experiments.

[5] = system: G. lamblia trophozoites (WB strain); assay: Attachment and viability of G. lamblia trophozoites; type: cell-based, Giardia lamblia; settings: for Concentration at which detachment and cytotoxicity took impact: 24 h of incubation at 37 °C; for Detachment of trophozoites: cultures incubated with compound
Experimental: Cytotoxicity of a drug is not the only important characteristic to cope with the pathogenesis of G. lamblia. It is known that the attachment of the trophozoites to the microvillus border of the small intestine is a crucial step for causing disease. […] T-143 and T-146 had the highest cytotoxic effect on giardia trophozoites (Figure 2(A,B), respectively). Detachment of trophozoites in cultures incubated with T-146 or T-161 was undetectable, with their impact directly through cytotoxicity (Figure 2(B)).

recombinant GlTIM = biological target: T2, recombinant GlTIM (Giardia intestinalis, UniProt P36186); assay: Inhibition of recombinant GlTIM enzyme activity; type: biochemical, Giardia lamblia; settings: 500 µM compound, 2 h at 37 °C
T2 construct: His-tag with TEV site (pET3a-HisTEV); made in house; host or cells: Escherichia coli BL21(DE3) pLys
Experimental: Escherichia coli BL21(DE3) pLys bacteria containing the plasmid pET3a-HisTEV with the gene coding for GlTIM wild type were grown in LB medium supplemented with 0.1 mg/mL ampicillin and incubated at 37 °C[40]. When the cultures reached Abs600 = 0.8, they were induced to express the recombinant enzyme using 0.4 mM IPTG and incubated overnight at 30 °C with shaking at 180 rpm. After induction and growth, the bacteria were collected by centrifugation (6500 rpm, 15 min) and suspended in 40 mL of lysis buffer (pH 8.0) containing 50 mM Tris, 50 mM NaCl, 5 mM β-mercaptoethanol, and 1 mM phenylmethylsulfonyl fluoride (PMSF). The bacterial suspension was disrupted by sonication and centrifuged at 9000 rpm for 1 h, at 4 °C. Protein purification was performed via IMAC using a Profinity Ni^2+ charged resin previously equilibrated with lysis buffer. The soluble protein fraction was mixed with the equilibrated Ni^2+ charged resin and incubated at room temperature with shaking for 30 min. Then, the column was washed with the same buffer (10 column volumes) to remove proteins without the His-tag sequence. The desired proteins were eluted with lysis buffer containing 200 mM imidazole and adjusted to pH 8.0. The purified protein was concentrated using Amicon ultrafiltration units. The purity of the enzymes was analysed via sodium dodecyl sulfate-polyacrylamide gel electrophoresis (16% SDS–PAGE gel) and stained with colloidal Coomassie Brilliant Blue. The enzyme concentration was spectrophotometrically determined (Spectrophotometer Cary 50, Varian Inc.) at 280 nm using the extinction coefficient ε280 = 26,600 M^−1 cm^−1.
For the inhibition assays, freshly purified recombinant GlTIM was incubated at 0.2 mg/mL for 2 h at 37 °C in the presence of 500 μM of each n-butyl and iso-butyl quinoxaline-7-carboxylate-1,4-di-N-oxide derivatives. After incubation, the samples were diluted, and 5 ng/mL were taken to measure their enzymatic activity. Enzyme activity was spectrophotometrically measured (Spectrophotometer Cary 50, Agilent Technologies, CA, USA) by following DHAP synthesis with a coupled system that followed the oxidation of NADH at 340 nm[41]. Results are expressed as the percent activity versus each compound at 500 μM, with the enzyme activity without any drug set as 100%. Additionally, GlTIM and HsTIM (separately) were incubated at 0.2 mg/mL for 2 h at 37 °C in the presence of 5, 10, 50, 150, 250, 350, and 500 μM of the T-167 derivative. Results are expressed as the percent activity versus T-167 concentration. All results represent the arithmetic mean of at least four independent experiments.

[6] = Trichomonas vaginalis, GT3, 48 h, read-out: T. vaginalis (IC50 nM), trophozoites, 48 h at 37 °C, subcultured 48 h, Probit analysis
[7] = read-out: T. vaginalis (IC50 nM), trophozoites, 48 h at 37 °C, subcultured 48 h, Probit analysis
[8] = Giardia duodenalis, 48 h, read-out: G. lamblia (IC50 nM), trophozoites, 48 h at 37 °C, subcultured 48 h, Probit analysis
[9] = read-out: G. lamblia (IC50 nM), trophozoites, 48 h at 37 °C, subcultured 48 h, Probit analysis

T2 sequence (P36186 whole entry): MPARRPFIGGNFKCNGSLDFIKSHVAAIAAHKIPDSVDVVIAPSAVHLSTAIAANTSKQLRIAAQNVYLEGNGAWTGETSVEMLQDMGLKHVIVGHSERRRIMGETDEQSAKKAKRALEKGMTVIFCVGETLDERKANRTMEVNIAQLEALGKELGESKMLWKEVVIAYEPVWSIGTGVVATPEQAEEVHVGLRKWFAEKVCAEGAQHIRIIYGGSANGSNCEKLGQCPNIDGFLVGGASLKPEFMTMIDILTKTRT

Row | Compound | IC50 [1] [nM] | Selectivity index, T. vaginalis versus macrophages (T. vaginalis GT3 strain; CC50 J774.2 / IC50 T. vaginalis) [fold] | IC50 (T. vaginalis GT3 strain; [6]) [nM] | IC50 (T. vaginalis GT3 strain; [7]) [nM] | CC50 [2] [nM] | Selectivity index, G. lamblia versus macrophages (G. lamblia WB strain; CC50 J774.2 / IC50 G. lamblia) [fold] | IC50 (G. lamblia WB strain; [8]) [nM] | IC50 (G. lamblia WB strain; [9]) [nM] | Selectivity index, E. histolytica versus macrophages ([3]; CC50 J774.2 / IC50 E. histolytica) [fold] | IC50 [3] [nM] | inhibition at 100 µM [4] [%] | Concentration at which detachment and cytotoxicity took impact [5] [µM] | inhibition at 500 µM (recombinant GlTIM) [%] | IC50 ([4]; DTNB reductase activity, 30 °C, pH 7.0) [nM] | Detachment of trophozoites [5]
1 | CCOC(=O)c1c(C(F)(F)F)[n+]([O-])c2ccc(C(=O)OC(C)C)cc2[n+]1[O-] [Compound T-116] | 28000 |  |  |  |  |  |  |  |  |  |  |  |  |  | 
2 | CCCCOC(=O)c1ccc2c(c1)[n+]([O-])c(C(=O)Nc1ccc(Cl)cc1)c(C)[n+]2[O-] [Compound T-143] |  | 1112 | < 90 | 45.2 ± 6.99 | 50300 ± 2800 | 1726 | < 30 | 29.1 ± 5.83 | 3321 | 15.1 ± 2.33 | 50 to 75 | 25 | 43.7 |  | 
3 | Cc1c(C(=O)Nc2ccc(Cl)cc2)[n+]([O-])c2cc(C(=O)OCC(C)C)ccc2[n+]1[O-] [Compound T-161] |  |  | 137 ± 3.5 |  |  |  | 120 ± 1.16 |  |  | 29.1 ± 3.5 | > 75 | 25 | 19.7 | 18000 | undetectable
4 | CCCCOC(=O)c1ccc2c(c1)[n+]([O-])c(C(=O)OCC)c(C(F)(F)F)[n+]2[O-] [Compound T-146] |  |  | ~100 | 102 ± 2.49 | > 200000 |  | < 30 | 26.1 ± 6.22 |  | 64.7 ± 3.73 | 50 to 75 | 25 | 37.3 |  | undetectable

From publication PMC11523249, “Expanding the antiprotozoal activity and the mechanism of action of n-butyl and iso-butyl ester of quinoxaline-1,4-di-N-oxide derivatives against Giardia lamblia, Trichomonas vaginalis, and Entamoeba histolytica. An in vitro and in silico approach” (Journal of Enzyme Inhibition and Medicinal Chemistry, 2024)
